# In patent US20160361298A1, “METHODS AND COMPOSITIONS FOR TREATING CANCER” (Globavir BioSciences, Inc., priority 2015, published 2016):
# Where two headings read alike, the source gives them in different places.
# What was measured:
# Recombinant TDO = target: T1, Recombinant TDO (Homo sapiens, UniProt P48775); test: TDO Inhibition Assay (recombinant enzyme, absorbance at 321 nm); format: biochemical; details: for activity at 1 µM: 1 μM test compound, read-out: TDO Inhibition Assay Screening (Activity, %) 1 μM; for activity at 10 µM: read-out: TDO Inhibition Assay Screening (Activity, %) 10 μM
# T1 construct: Recombinant TDO or IDO was diluted to 16 ng/uL and 50 uL loaded into wells of a 96-well plate
# T1 sequence (P48775 whole entry): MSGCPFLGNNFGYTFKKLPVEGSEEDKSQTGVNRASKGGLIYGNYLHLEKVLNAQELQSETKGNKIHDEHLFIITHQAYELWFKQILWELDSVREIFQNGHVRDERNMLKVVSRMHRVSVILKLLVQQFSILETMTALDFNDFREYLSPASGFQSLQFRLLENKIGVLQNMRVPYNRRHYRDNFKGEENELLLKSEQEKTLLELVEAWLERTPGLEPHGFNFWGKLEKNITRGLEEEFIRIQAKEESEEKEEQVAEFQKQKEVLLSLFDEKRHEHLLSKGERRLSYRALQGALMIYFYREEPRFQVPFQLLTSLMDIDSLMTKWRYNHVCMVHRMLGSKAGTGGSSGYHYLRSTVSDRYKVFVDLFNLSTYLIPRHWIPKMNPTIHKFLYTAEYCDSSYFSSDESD
# Method: Inhibition of IDO by TDO/IDO test inhibitors was assessed in vitro. A substrate mixture was prepared by mixing equal volumes of 80 mM ascorbic acid diluted in 0.405 M Tris, pH 8.0 and a mixture of […] L-tryptophan, 9,000 units/mL catalase and 40 uM methyene blue. Recombinant TDO or IDO was diluted to 16 ng/uL and 50 uL loaded into wells of a 96-well plate. The reaction was started by the addition of 50 uL substrate mixture. The plate was read in kinetic mode at 321 nm for 5 minutes. The rate of increase of absorbance measured in the absence of a TDO/IDO inhibitor is taken as the maximum rate of enzymatic activity.
# Recombinant IDO = target: T2, Recombinant IDO (Homo sapiens, UniProt P14902); test: IDO Inhibition Assay (recombinant enzyme, absorbance at 321 nm); format: biochemical; details: for activity at 1 µM: 1 μM test compound, read-out: IDO Inhibition Assay Screening (Activity, %) 1 μM; for activity at 10 µM: read-out: IDO Inhibition Assay Screening (Activity, %) 10 μM
# T2 construct: Recombinant TDO or IDO was diluted to 16 ng/uL and 50 uL loaded into wells of a 96-well plate
# T2 sequence (P14902 whole entry): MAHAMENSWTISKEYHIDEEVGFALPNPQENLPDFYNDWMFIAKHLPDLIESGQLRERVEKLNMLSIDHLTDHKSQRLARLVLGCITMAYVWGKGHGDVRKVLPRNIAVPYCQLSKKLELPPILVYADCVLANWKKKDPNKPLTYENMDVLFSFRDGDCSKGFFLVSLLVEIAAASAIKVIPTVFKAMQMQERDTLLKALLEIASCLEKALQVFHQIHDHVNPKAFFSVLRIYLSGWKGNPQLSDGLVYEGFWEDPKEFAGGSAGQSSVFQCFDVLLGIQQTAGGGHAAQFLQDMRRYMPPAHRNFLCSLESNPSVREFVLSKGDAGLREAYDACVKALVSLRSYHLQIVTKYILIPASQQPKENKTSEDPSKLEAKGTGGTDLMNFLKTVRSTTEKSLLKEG
# Method: Inhibition of IDO by TDO/IDO test inhibitors was assessed in vitro. […] Recombinant TDO or IDO was diluted to 16 ng/uL and 50 uL loaded into wells of a 96-well plate. The reaction was started by the addition of 50 uL substrate mixture. […] The rate of increase of absorbance measured in the absence of a TDO/IDO inhibitor is taken as the maximum rate of enzymatic activity.
# [1] = system: HuT78 (human CTCL cell line); test: Cancer cell cytotoxicity, CellTiter-Glo Luminescent Cell Viability Assay; details: HuT78, read-out: IC50 (μM) cancer cell cytotoxicity
# Method: (§1) TDO/IDO test compounds were incubated with various cancer cell lines to determine the effect of the test compounds on cancer cell death. The CellTiter-Glo Luminescent Cell Viability Assay was used to determine cell cytotoxicity by determining the number of viable cells in culture based on quantitation of ATP, which signals the presence of metabolically active cells.
# [2] = system: U87MG (human glioblastoma); test: as above; details: U-87 MG, read-out: IC50 (μM) cancer cell cytotoxicity
# Method: as §1
# [3] = system: SCC4 (human squamous cell carcinoma); test: as above; details: SCC-4, read-out: IC50 (μM) cancer cell cytotoxicity
# Method: as §1
# [4] = system: HT29 (human colorectal adenocarcinoma); test: as above; details: HT-29, read-out: IC50 (μM) cancer cell cytotoxicity
# Method: as §1
# CT26 (murine colon) = test: as above; details: Mus musculus, CT26, read-out: IC50 (μM) cancer cell cytotoxicity
# Method: as §1
# [5] = system: Pano2 (murine pancreatic); test: as above; details: Mus musculus, PanO2, read-out: IC50 (μM) cancer cell cytotoxicity
# Method: as §1
# GL261 (murine glioma) = test: as above; details: Mus musculus, GL261, read-out: IC50 (μM) cancer cell cytotoxicity
# Method: as §1
# [6] = 10 μM test compound, remaining enzyme activity
# [7] = read-out: TDO Inhibition Assay Dose Resp. (IC50)
# [8] = read-out: IDO Inhibition Assay Dose Resp. (IC50)
Compound,activity at 1 µM (Recombinant TDO; remaining enzyme activity) [%],activity at 10 µM (Recombinant TDO; [6]) [%],IC50 (Recombinant TDO; [7]) [µM],activity at 1 µM (Recombinant IDO; remaining enzyme activity) [%],activity at 10 µM (Recombinant IDO; [6]) [%],IC50 (Recombinant IDO; [8]) [µM],IC50 (Recombinant IDO) [µM],activity at 10 µM (Recombinant TDO) [%],activity at 10 µM (Recombinant IDO) [%],IC50 [1] [µM],IC50 [2] [µM],IC50 [3] [µM],IC50 [4] [µM],IC50 (CT26 (murine colon)) [µM],IC50 [5] [µM],IC50 (GL261 (murine glioma)) [µM],IC50 (Recombinant TDO) [µM]
Clc1ccc(COC(Cn2ccnc2)c2ccc(Cl)cc2Cl)cc1 (stereo not shown) [Econazole],80,20,5.35,71,28,,4.91,,,,,,,,,,
O=C(O)c1ccc(-n2nc(-c3ccccc3O)nc2-c2ccccc2O)cc1 [Deferasirox],107,69,,90,85,,,,,,,,,,,,
C=C(c1ccccc1OCc1cccc(Cl)c1)n1ccnc1 [Cloconazole],,,0.532,,,,,5,76,19.4,26.7,46.2,10.7,8.06,9.61,20.3,
Clc1ccc(C(Cn2ccnc2)OCc2csc3c(Cl)cccc23)c(Cl)c1 (stereo not shown) [Sertaconazole],74,15,4.07,63,37,,8.25,,,17.7,13.9,,11.9,10.9,16.1,30.1,
Clc1ccc(C(Cn2ccnc2)OCc2c(Cl)cccc2Cl)c(Cl)c1 (stereo not shown) [Isoconazole],58,17,,76,53,,14.6,,,15.7,63.9,83.8,14.8,14.8,12.6,15.6,4.12
NS(=O)(=O)NCCNc1nonc1C(=NO)Nc1ccc(F)c(Br)c1 [INCB024360],,,,,,,,,,72.5,,,53.7,69.9,53.5,48.9,
Clc1ccc(COC(Cn2ccnc2)c2ccc(Cl)cc2Cl)c(Cl)c1 (stereo not shown) [Miconazole],74,16,3.7,67,27,,4.69,,,,,,,,,,
CC1=NN(c2ccc(C)c(C)c2)C(=O)/C1=N\Nc1cccc(-c2cccc(C(=O)O)c2)c1O [Eltrombopag],,5,1.05,,83,,,,,,,,,,,,

# Further lines, with some results ahead:
activity at 1 µM (Recombinant TDO; remaining enzyme activity) [%],activity at 10 µM (Recombinant TDO; [6]) [%],IC50 (Recombinant TDO; [7]) [µM],activity at 1 µM (Recombinant IDO; remaining enzyme activity) [%],activity at 10 µM (Recombinant IDO; [6]) [%],IC50 (Recombinant IDO; [8]) [µM],Compound,IC50 (Recombinant IDO) [µM],activity at 10 µM (Recombinant TDO) [%],activity at 10 µM (Recombinant IDO) [%],IC50 [1] [µM],IC50 [2] [µM],IC50 [3] [µM],IC50 [4] [µM],IC50 (CT26 (murine colon)) [µM],IC50 [5] [µM],IC50 (GL261 (murine glioma)) [µM],IC50 (Recombinant TDO) [µM]
93,82,47,72,56,17.4,CCC(C)n1ncn(-c2ccc(N3CCN(c4ccc(OCC5COC(Cn6cncn6)(c6ccc(Cl)cc6Cl)O5)cc4)CC3)cc2)c1=O (stereo not shown) [Itraconazole],,,,,,,,,,,
89,-34,2.73,85,56,,Clc1ccc(C(Cn2ccnc2)OCc2ccc(Sc3ccccc3)cc2)c(Cl)c1 (stereo not shown) [Fenticonazole],,,,9.16,15.6,78.8,13.9,7.6,16.1,15.2,
83,28,4.16,76,47,9.33,Clc1ccc(C(Cn2ccnc2)OCc2ccsc2Cl)c(Cl)c1 (stereo not shown) [Tioconazole],,,,12.1,26.1,28.2,18.2,14,22.2,27,
82,62,,84,75,,O=C(Nc1ccc([N+](=O)[O-])cc1Cl)c1cc(Cl)ccc1O [Niclosamide],,,,,,,,,,,
89,43,9.33,99,88,63.4,Clc1cccc(C(c2ccc3[nH]cnc3c2)n2ccnc2)c1 (stereo not shown) [Liarozole],,,,,,,,,,,
